Measurements taken from article PMC5999033 (European journal of medicinal chemistry, 2018).
Where two headings read alike, the source gives them in different places. Each block holds one compound with its values, some of them ahead of it.

Experiments:
FABP4 = FABP4 (Homo sapiens, UniProt P15090); test: FABP4 inhibition; conditions: Fig. S5
[1] = tested on: formalin-induced mouse models; conditions: cited from earlier work
FABP7 [2] = target: T1, FABP7 (Homo sapiens, UniProt O15540); test: Direct ligand binding assay of fluorescent probes, FABP7
[3] = Dynamic light scattering, colloidal aggregation; assay type: physicochemical; conditions: 20 μM in PBS, 24°C
FABP5 [4] = target: T2, FABP5 (Homo sapiens, UniProt Q01469); test: Direct ligand binding assay of fluorescent probes, FABP5
FABP3 [5] = target: T3, FABP3 (Homo sapiens, UniProt P05413); test: Direct ligand binding assay of fluorescent probes, FABP3
FABP3 [6] = target: T3, FABP3; conditions: read-out: Kd towards FABP3; determined in a previous study; cited from earlier work
FABP7 [7] = target: T1, FABP7; conditions: read-out: Kd towards FABP7; determined in a previous study; cited from earlier work
FABP5 [8] = target: T2, FABP5; conditions: read-out: Kd towards FABP5; determined in a previous study; cited from earlier work

FABP4, sequence (P15090 whole entry): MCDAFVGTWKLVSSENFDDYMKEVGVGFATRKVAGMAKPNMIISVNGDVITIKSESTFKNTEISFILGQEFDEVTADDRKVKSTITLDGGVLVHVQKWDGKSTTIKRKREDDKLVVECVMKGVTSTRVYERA
T3 sequence (P05413 whole entry): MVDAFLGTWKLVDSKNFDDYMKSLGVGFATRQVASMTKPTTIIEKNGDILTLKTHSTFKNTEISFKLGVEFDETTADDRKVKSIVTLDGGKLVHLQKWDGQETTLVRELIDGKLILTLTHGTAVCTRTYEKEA
T1 sequence (O15540 whole entry): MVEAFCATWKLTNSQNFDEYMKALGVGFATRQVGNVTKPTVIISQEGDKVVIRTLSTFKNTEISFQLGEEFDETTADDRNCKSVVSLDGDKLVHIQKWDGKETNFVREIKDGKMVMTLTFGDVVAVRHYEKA
T2 sequence (Q01469 whole entry): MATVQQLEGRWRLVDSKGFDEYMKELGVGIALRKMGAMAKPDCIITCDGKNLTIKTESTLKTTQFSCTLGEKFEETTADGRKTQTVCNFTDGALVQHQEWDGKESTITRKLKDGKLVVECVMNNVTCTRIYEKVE

FABP4 inhibition (FABP4): do not appreciably inhibit FABP4
Compound: C#Cc1cccc(OC(=O)[C@H]2[C@@H](c3ccccc3)[C@H](C(=O)O)[C@@H]2c2ccccc2)c1 (racemic) [Compound 3f, 1-(3-Ethynylphenyl) α-3-hydroxycarbonyl-2,4-diphenylcyclobutane-1-carboxylate]

FABP4 inhibition (FABP4): do not appreciably inhibit FABP4
Compound: COc1ccccc1[C@H]1[C@H](C(=O)O)[C@H](c2ccccc2OC)[C@H]1C(=O)Oc1cccc2ccccc12 (racemic) [Compound 4b, 1-Naphthyl α-3-hydroxycarbonyl-2,4-di(2-methoxylphenyl)cyclobutane-1-carboxylate]

FABP4 inhibition (FABP4): do not appreciably inhibit FABP4
Compound: COc1ccccc1[C@H]1[C@H](C(=O)O)[C@H](c2ccccc2OC)[C@H]1C(=O)OCC1c2ccccc2-c2ccccc21 (racemic) [Compound 4j, 9-Fluorenylmethyl α-3-hydroxycarbonyl-2,4-di(2-methoxylphenyl)cyclobutane-1-carboxylate]

Compound: COc1cc([C@H]2[C@H](C(=O)O[C@@H]3C[C@@H]4[C@@H](CN(C)C[C@@H]4C)[C@@H]3C)[C@H](c3ccc(O)c(OC)c3)[C@H]2C(=O)O[C@@H]2C[C@@H]3[C@@H](CN(C)C[C@@H]3C)[C@@H]2C)ccc1O [(-)-incarvillateine]
analgesic and anti-inflammatory effects [1]: potent analgesic and anti-inflammatory effects

Kd (FABP7 [2]): 1010 nM
Compound: O=S(=O)(O)c1cccc2cccc(Nc3ccccc3)c12 [ANS, 1-Anilinonaphthalene-8-sulfonic Acid]

colloidal aggregation by DLS [3]: no evidence of colloidal aggregation
Compound: O=C(O)C1C(c2ccccc2)C(C(=O)O[C@@H]2CCCC[C@H]2c2ccccc2)C1c1ccccc1 (stereo partly drawn) [Compound 3l, 1-[(1R,2S)-2-Phenylcyclohexyl] α-3-hydroxycarbonyl-2,4-diphenylcyclobutane-1-carboxylate]

Kd (FABP5 [4]): 2560 nM
Kd (FABP3 [5]): 2040 nM
Compound: CN(C)c1cccc2c(S(=O)(=O)NCCCCCCCCCCC(=O)O)cccc12 [DAUDA, 11-[5-(Dimethylamino)-1-naphthalenesulfonyl-amino]undecanoic acid]

Compound: CCCCCCC(CCCCCCCCCCC(=O)O)N(C)c1ccc([N+](=O)[O-])c2nonc12 (centres unmarked) [NBD-stearate, 12-N-methyl-(7-nitrobenz-2-oxa-1,3-diazo)aminostearic acid]
Kd (FABP3 [6]): 18 nM
Kd (FABP7 [7]): 220 nM
Kd (FABP5 [8]): 160 nM
